Data set [1] relates to Mouse Skin Phosphodiesterase. The data set can be described thus: Mouse skin phosphodiesterase (PDE) inhibition test. As to conditions: 10 ug./ml. final concentration; 30° C. for 15 minutes. Format: biochemical, Hairless mice. Set-up: key: Active: A compound is considered active if it inhibits more than theophylline, that is, to 50% of control at 1 mM concentration of compound, or to 80% of control of 0.05 mM concentration of compound.

Data set [2] concerns Monkey Lung Cyclic AMP Phosphodiesterase. Kind of data set: Monkey lung phosphodiesterase inhibition test. Format: biochemical, African green monkeys. The settings on record: usually 1 mM or 0.1 mM; pH 7.4, 25° C. for 20 minutes. How it is done:
Lung parenchyma of African green monkeys is homogenized in a Waring blender and centrifuged at 40,000×gravity for 20 minutes. The supernatant is brought to 70% saturation of ammonium sulfate, centrifuged and the pellet redissolved and dialysed, before aliquoting and storage at --20° C.
Phosphodiesterase is assayed by the method of Thompson and Appleman, ibid. An assay tube contains a 0.4 ml. solution of the following: 45 mM tris-HCl buffer, pH 7.4, […], 0.1 mM dithioerythritol, 10^-6 M cyclic AMP, 0.1 uCi [^3 H]-cyclic AMP, and test compound at the desired concentration (usually 1 mM or 0.1 mM). Compounds not readily soluble in water are dissolved at 40 times the desired concentration in methanol, and diluted 20 times with water. If the compound is not dissolved at this time, it is suspended by sonication before being diluted 1:2 into the assay tube. In this case the activity of the enzyme in the presence of the compound is compared to a solvent control (2.5% methanol), although the solvent alone has negligible effect. The reaction is initiated by addition of enzyme and proceeds at 25° C. for 20 minutes. It is terminated by incubation at 100° C. for 2 minutes. The tubes are cooled to 25° C., 0.8 ug of 5'-nucleotidase (Crotolu adamantus toxin) is added to each and the tubes incubated at 25° C. for 30 minutes. A 1 milliliter suspension of Bio-Rad Labs. AGIX8 (about 0.5 ml. of settled resin) is added, the tubes centrifuged at 900×gravity for 10 minutes and an aliquot of supernatant removed for scintillation counting. The inhibition by the test compound is calculated as: [formula] where `compound` is the cpm in the presence of compound, `control` is the cpm in the absence of compound, and `blank` is the cpm in the absence of enzyme. […] For this reason, control tubes which contained [^3 H]-AMP instead of [^3 H]-cyclic AMP are run in parallel. A correction of the apparent phosphodiesterase activity is made for the rare compound which inhibited the hydrolysis of AMP.

Data set [3] is described as follows: Dispersion of aerosol suspension on warming after storage. Format: physicochemical. As to conditions: aerosol suspension in dichlorodifluoromethane with sorbitan trioleate, sonified. The procedure:
The active ingredient and sorbitan trioleate are placed in a beaker and the dichlorodifluoromethane is added at -40° C. whereupon a suspension is formed. The mixture is sonified, that is, treated with a Sonifier, manufactured by the Branson Sonic Power Co. of Danbury, Conn., as model LS-75 at a current input of 9 amperes for 2 minutes. Additional cold dichlorodifluoromethane is added as necessary to keep the volume at 100 ml. The mixture is uniformly dispersed, and has increased stability resulting from the sonification. Each of six 19 ml. stainless steel containers are filled with 15 ml. of the cold mixture, then valves are inserted and sealed in place.

Consider `Cc1nc(C)n2c(=O)[nH]ncc12` [6,8-Dimethyl-imidazo[1,5-d]-as-triazin-4(3H)-one], for which the “Mouse Skin Phosphodiesterase (A)” value in data set [1] is listed as “Active”. Moreover, the “Monkey lung phosphodiesterase inhibition (B)” value in data set [2] is recorded as “Active”.

Consider `Cc1nc(C)n2c(=S)[nH]ncc12` [6,8-Dimethyl-imidazo[1,5-d]-as-triazine-4-(3H)-thione], for which, in data set [1], the “Mouse Skin Phosphodiesterase (A)” value is reported as “Active”. Regarding `Cc1nc(Cc2ccccc2)n2c(=O)[nH]ncc12` [6-Benzyl-8-methyl-imidazo[1,5-d]-as-triazin-4(3H)-one], the “Mouse Skin Phosphodiesterase (A)” value in data set [1] is “Active”. On to `Cc1nc(Cc2ccccc2)n2c(=S)[nH]ncc12` [6-Benzyl-8-methyl-imidazo[1,5-d]-as-triazine-4(3H)-thione], for which the “Mouse Skin Phosphodiesterase (A)” value in data set [1] is recorded as “Active”. Further, the “Monkey lung phosphodiesterase inhibition (B)” value in data set [2] was “Active”. `O=c1[nH]ncc2cnc(Cc3ccccc3)n12` [6-Benzyl-imidazo[1,5-d]-as-triazin-4(3H)-one]: in data set [1], the “Mouse Skin Phosphodiesterase (A)” value is listed as “Active”.

On to `O=c1[nH]ncc2cnc(-c3ccccc3)n12` [6-Phenyl-imidazo[1,5-d]-as-triazin-4(3H)-one], for which the “Mouse Skin Phosphodiesterase (A)” value in data set [1] is listed as “Active”. The same measure, in the same setting: with `CCCc1ncc2cn[nH]c(=O)n12` [6-n-Propyl-imidazo[1,5-d]-as-triazin-4(3H)-one] the entry was “Active”.

For the compound `CCCc1ncc2cn[nH]c(=S)n12` [6-n-Propyl-imidazol[1,5-d]-as-triazine-4(3H)-thione], the “Mouse Skin Phosphodiesterase (A)” value in data set [1] is given as “Active”. Further, in data set [2], the “Monkey lung phosphodiesterase inhibition (B)” value is “Active”. In the case of `CCCOc1ccccc1-c1ncc2cn[nH]c(=O)n12` [6-o-Propoxyphenyl-imidazo[1,5-d]-as-triazine-4(3H)-one], the “Mouse Skin Phosphodiesterase (A)” value in data set [1] is listed as “Active”.

Consider `Cc1nc(C(C)(C)C)n2c(=O)[nH]ncc12` [6-tert-Butyl-8-methyl-imidazo[1,5-d]-as-triazin-4(3H)-one], for which, in data set [1], the “Mouse Skin Phosphodiesterase (A)” value is “Active”. Besides, in data set [2], the “Monkey lung phosphodiesterase inhibition (B)” value is given as “Active”. As to `CC(C)(C)c1ncc2cn[nH]c(=O)n12` [6-tert-Butyl-imidazo[1,5-d]-as-triazin-4(3H)-one], the “Mouse Skin Phosphodiesterase (A)” value in data set [1] is on record as “Active”. Consider `O=c1[nH]ncc2c(Br)nc(-c3ccccc3)n12` [8-Bromo-6-phenyl-imidazo[1,5-d]-as-triazin-4(3H)-one], for which the “Mouse Skin Phosphodiesterase (A)” value in data set [1] is “Active”. Further, the “Monkey lung phosphodiesterase inhibition (B)” value in data set [2] is “Active”. Regarding `O=c1[nH]ncc2c(Cl)nc(-c3ccccc3)n12` [8-Chloro-6-phenyl-imidazo[1,5-d]-as-triazin-4(3H)-one], in data set [1], the “Mouse Skin Phosphodiesterase (A)” value is “Active”. Besides, the “Monkey lung phosphodiesterase inhibition (B)” value in data set [2] is given as “Active”. Take `CCCc1nc(C)c2cn[nH]c(=S)n12` [8-Methyl-6-n-propyl-imidazolo[1,5-d]-as-triazine-4(3H)-thione]: the “Mouse Skin Phosphodiesterase (A)” value in data set [1] is reported as “Active”. The “Monkey lung phosphodiesterase inhibition (B)” value in data set [2] is reported as “Active”. In the case of `Cc1nc(-c2ccccc2)n2c(=O)[nH]ncc12` [8-Methyl-6-phenyl-imidazo[1,5-d]-as-triazin-4(3H)-one], in data set [1], the “Mouse Skin Phosphodiesterase (A)” value is on record as “Active”. Further, the “Monkey lung phosphodiesterase inhibition (B)” value in data set [2] is listed as “Active”. Consider `Cc1nc(-c2ccccc2)n2c(=S)[nH]ncc12` [8-Methyl-6-phenyl-imidazo[1,5-d]-as-triazine-4-(3H)-thione], for which the “Mouse Skin Phosphodiesterase (A)” value in data set [1] is listed as “Active”. The same measure, in the same setting: with `Cc1ncn2c(=O)[nH]ncc12` [8-Methyl-imidazo[1,5-d]-as-triazin-4(3H)-one] the entry was “Active”; with `Cc1ncn2c(=S)[nH]ncc12` [8-Methyl-imidazo[1,5-d]-as-triazine-4-(3H)-thione], “Active”. Consider `CC(C)c1nc(Cl)c2cn[nH]c(=S)n12` [8-chloro-6-isopropyl-imidazo[1,5-d]-as-triazine-4(3H)-thione], for which, in data set [3], the “dispersion of the aerosol suspension” value is reported as “remains dispersed”.

(Values after patent USRE30511E, “Imidazo[1,5-d]-as-triazine-4(3H)-ones and thiones” (American Cyanamid Company, priority 1979, dated 1981).)
